Source: patent US20230192661A1, “1, 4, 5, 6-TETRAHYDROPYRIMIDINE-2-AMINE DERIVATIVE” (UBE Corporation, priority 2020, published 2023)

Legend:
[1] = biological target: T1, αvβ1 (UniProt G3HZ55+P06756); assay: αvβ1 cell adhesion inhibition test (αv-transfected CHO cells on human fibronectin); assay type: cell-based; conditions: human fibronectin coating, 1 mM MnCl2, 1 hour, read-out: IC50 (rate of inhibition of cell adhesion, αvβ1)
T1 construct: expressed in transfected cells; host or cells: CHO cells deficient in α5 gene, transfected with αv gene
T1 sequence (P06756 31-889 limits assumed): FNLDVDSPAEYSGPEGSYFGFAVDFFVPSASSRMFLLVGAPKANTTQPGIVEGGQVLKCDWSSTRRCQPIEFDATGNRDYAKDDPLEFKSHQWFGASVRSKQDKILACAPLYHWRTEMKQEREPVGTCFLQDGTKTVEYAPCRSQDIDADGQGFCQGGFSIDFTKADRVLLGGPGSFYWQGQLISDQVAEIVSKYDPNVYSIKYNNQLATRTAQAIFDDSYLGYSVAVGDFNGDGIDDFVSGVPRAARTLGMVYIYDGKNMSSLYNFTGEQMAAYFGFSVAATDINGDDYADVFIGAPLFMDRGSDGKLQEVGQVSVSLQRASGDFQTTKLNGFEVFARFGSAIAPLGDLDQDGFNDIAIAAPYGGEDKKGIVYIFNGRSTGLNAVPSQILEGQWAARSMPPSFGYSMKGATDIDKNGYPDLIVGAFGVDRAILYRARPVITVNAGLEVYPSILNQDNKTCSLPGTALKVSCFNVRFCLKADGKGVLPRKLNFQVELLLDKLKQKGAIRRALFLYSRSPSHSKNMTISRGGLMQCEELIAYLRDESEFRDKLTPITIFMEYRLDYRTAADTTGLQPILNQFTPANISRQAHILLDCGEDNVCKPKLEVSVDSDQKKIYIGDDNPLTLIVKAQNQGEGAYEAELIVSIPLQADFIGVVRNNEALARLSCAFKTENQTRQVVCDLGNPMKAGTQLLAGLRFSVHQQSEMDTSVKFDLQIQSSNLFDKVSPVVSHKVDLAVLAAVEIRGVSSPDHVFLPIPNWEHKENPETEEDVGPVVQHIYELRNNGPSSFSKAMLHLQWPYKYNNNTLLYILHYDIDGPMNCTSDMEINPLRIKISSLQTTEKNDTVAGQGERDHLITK
T1 sequence (P06756 891-1048 limits assumed): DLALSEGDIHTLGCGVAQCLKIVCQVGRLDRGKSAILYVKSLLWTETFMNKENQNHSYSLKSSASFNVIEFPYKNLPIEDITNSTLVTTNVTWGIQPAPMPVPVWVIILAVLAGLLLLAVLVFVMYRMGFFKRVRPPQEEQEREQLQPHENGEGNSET
T1 sequence (G3HZ55 21-798): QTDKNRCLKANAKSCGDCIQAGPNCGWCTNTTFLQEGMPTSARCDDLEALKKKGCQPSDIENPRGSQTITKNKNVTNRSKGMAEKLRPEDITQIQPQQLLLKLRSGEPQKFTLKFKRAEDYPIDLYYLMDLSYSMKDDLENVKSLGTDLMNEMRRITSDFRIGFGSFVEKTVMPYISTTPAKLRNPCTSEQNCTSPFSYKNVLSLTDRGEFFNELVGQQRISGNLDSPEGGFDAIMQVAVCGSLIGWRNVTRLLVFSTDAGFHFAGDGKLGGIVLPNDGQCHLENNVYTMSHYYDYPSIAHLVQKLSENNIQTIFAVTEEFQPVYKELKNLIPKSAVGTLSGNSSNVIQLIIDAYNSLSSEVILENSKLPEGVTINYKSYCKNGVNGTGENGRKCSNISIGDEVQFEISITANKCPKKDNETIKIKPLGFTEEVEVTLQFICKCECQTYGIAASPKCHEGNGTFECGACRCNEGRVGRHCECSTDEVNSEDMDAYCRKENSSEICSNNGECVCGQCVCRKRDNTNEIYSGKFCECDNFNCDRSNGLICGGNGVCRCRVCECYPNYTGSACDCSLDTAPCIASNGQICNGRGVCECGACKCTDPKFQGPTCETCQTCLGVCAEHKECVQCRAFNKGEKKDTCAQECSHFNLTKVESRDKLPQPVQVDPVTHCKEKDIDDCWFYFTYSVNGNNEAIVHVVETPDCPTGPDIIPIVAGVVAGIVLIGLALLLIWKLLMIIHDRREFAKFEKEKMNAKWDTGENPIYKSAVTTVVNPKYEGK
Summary of the method: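 α5-deficient CHO cells expressing αv, at 1×10^6 cells/mL in DMEM with 1 mM MnCl2 plus test compound, allowed to adhere 1 h at 37° C to human fibronectin (coated at 1.25 μg/mL). Adherent cells read by crystal violet absorbance, normalized to uncoated (100%) and DMSO (0%) wells. IC50 reported as banded classes.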

[2] = test system: TGF-β activation (phosphorylated SMAD3); assay: TGF-β activation inhibition test (inhibition of SMAD3 phosphorylation in TFK-1 cells); assay type: cell-based; conditions: 48 h, fibronectin-coated plate, cultured 2 days, read-out: IC50 (rate of inhibition of phosphorylated SMAD3)
Summary of the method: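 TFK-1 cells on fibronectin-coated wells cultured 2 days at 37° C. with compound in RPMI 1640 with 1% FBS. Phospho-SMAD3 (Ser423/425) measured by cellular kit as DeltaF; inhibition scaled between DMSO (0%) and 10 μM LY364947 (100%), and IC50 calculated.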

Structure (SMILES)	IC50 [1] [nM]	IC50 [2] [nM]
O=C(O)C[C@H](NC(=O)CNC(=O)c1cc(NC2=NCC(F)CN2)c2cn[nH]c2c1)c1cccc(Cl)c1 (stereo partly drawn) [Example 41-(b), (3S)-3-(3-chlorophenyl)-3-(2-(4-((5-fluoro-1,4,5,6-tetrahydropyrimidin-2-yl)amino)-1H-indazole-6-carboxamido)acetamido)propanoic acid]	3 to 10	< 10
O=C(O)C[C@H](NC(=O)CNC(=O)c1cc(NC2=NCC(F)CN2)c2cn[nH]c2c1)c1cccc(Br)c1 (stereo partly drawn) [Example 42-(b), (3S)-3-(3-bromophenyl)-3-(2-(4-((5-fluoro-1,4,5,6-tetrahydropyrimidin-2-yl)amino)-1H-indazole-6-carboxamido)acetamido)propanoic acid]	3 to 10	10 to 50
O=C(O)C[C@H](NC(=O)CNC(=O)c1cc(NC2=NCC(F)CN2)c2cn[nH]c2c1)c1cccc(-n2cccn2)c1 (stereo partly drawn) [Example 43-(b), (3S)-3-(3-(1H-pyrazol-1-yl)phenyl)-3-(2-(4-((5-fluoro-1,4,5,6-tetrahydropyrimidin-2-yl)amino)-1H-indazole-6-carboxamido)acetamido)propanoic acid]	3 to 10	< 10
Cc1cc(C)n(-c2cccc([C@H](CC(=O)O)NC(=O)CNC(=O)c3cc(NC4=NCC(F)CN4)c4cn[nH]c4c3)c2)n1 (stereo partly drawn) [Example 44-(b), (3S)-3-(3-(3,5-dimethyl-1H-pyrazol-1-yl)phenyl)-3-(2-(4-((5-fluoro-1,4,5,6-tetrahydropyrimidin-2-yl)amino)-1H-indazole-6-carboxamido)acetamido)propanoic acid]	< 3	< 10
O=C(O)C[C@H](NC(=O)CNC(=O)c1cc(NC2=NCC(F)CN2)c2cn[nH]c2c1)c1cccc(N2CCOCC2)c1 (stereo partly drawn) [Example 45-(b), (3S)-3-(2-(4-((5-fluoro-1,4,5,6-tetrahydropyrimidin-2-yl)amino)-1H-indazole-6-carboxamido)acetamido)-3-(3-morpholinophenyl)propanoic acid]	< 3	10 to 50
O=C(O)C[C@H](NC(=O)CNC(=O)c1cc(NC2=NCC(F)CN2)c2cn[nH]c2c1)c1ccc(OC(F)F)cc1 (stereo partly drawn) [Example 46-(b), (3S)-3-(4-(difluoromethoxy)phenyl)-3-(2-(4-((5-fluoro-1,4,5,6-tetrahydropyrimidin-2-yl)amino)-1H-indazole-6-carboxamido)acetamido)propanoic acid]	3 to 10	50 to 100
O=C(O)C[C@H](NC(=O)CNC(=O)c1cc(NC2=NCC(F)CN2)c2cn[nH]c2c1)c1ccc(C(F)(F)F)cc1 (stereo partly drawn) [Example 47-(b), (3S)-3-(2-(4-((5-fluoro-1,4,5,6-tetrahydropyrimidin-2-yl)amino)-1H-indazole-6-carboxamido)acetamido)-3-(4-(trifluoromethyl)phenyl)propanoic acid]	3 to 10	10 to 50
O=C(O)C[C@H](NC(=O)CNC(=O)c1cc(NC2=NCC(F)CN2)c2c(F)n[nH]c2c1)c1cc(Cl)cc(C(F)(F)F)c1 (stereo partly drawn) [Example 48-(b), (3S)-3-(3-chloro-5-(trifluoromethyl)phenyl)-3-(2-(3-fluoro-4-((5-fluoro-1,4,5,6-tetrahydropyrimidin-2-yl)amino)-1H-indazole-6-carboxamido)acetamido) propanoic acid]	3 to 10	< 10
O=C(O)C[C@H](NC(=O)CNC(=O)c1cc(NC2=NCC(F)CN2)c2c(Cl)n[nH]c2c1)c1cc(Cl)cc(C(F)(F)F)c1 (stereo partly drawn) [Example 49-(b), (3S)-3-(2-(3-chloro-4-((5-fluoro-1,4,5,6-tetrahydropyrimidin-2-yl)amino)-1H-indazole-6-carboxamido)acetamido)-3-(3-chloro-5-(trifluoromethyl)phenyl)propanoic acid]	< 3	< 10
O=C(O)C[C@H](NC(=O)CNC(=O)c1cc(NC2=NCC(O)CN2)c2cn[nH]c2c1)c1cc(Cl)cc(C(F)(F)F)c1 (stereo partly drawn) [Example 50-(b), (3S)-3-(3-chloro-5-(trifluoromethyl)phenyl)-3-(2-(4-((5-hydroxy-1,4,5,6-tetrahydropyrimidin-2-yl)amino)-1H-indazole-6-carboxamido)acetamido)propanoic acid]	10 to 30	≥ 100
O=C(O)C[C@H](NC(=O)CNC(=O)c1cc(NC2=NCCCN2)c2cn[nH]c2c1)c1cc(Cl)cc(C(F)(F)F)c1 [Example 51-(b), (S)-3-(3-chloro-5-(trifluoromethyl)phenyl)-3-(2-(4-((1,4,5,6-tetrahydropyrimidin-2-yl)amino)-1H-indazole-6-carboxamido)acetamido)propanoic acid]	30 to 100	50 to 100
O=C(O)C[C@H](NC(=O)CNC(=O)c1cc(NC2=NCC(F)CN2)cc2[nH]ncc12)c1cc(Cl)cc(C(F)(F)F)c1 (stereo partly drawn) [Example 52-(b), (3S)-3-(3-chloro-5-(trifluoromethyl)phenyl)-3-(2-(6-((5-fluoro-1,4,5,6-tetrahydropyrimidin-2-yl)amino)-1H-indazole-4-carboxamido)acetamido)propanoic acid]	< 3	< 10
O=C(O)C[C@H](NC(=O)CNC(=O)c1cc(NC2=NCC(F)CN2)cc2[nH]ncc12)c1cc(Br)cc(C(F)(F)F)c1 (stereo partly drawn) [Example 53-(b), (3S)-3-(3-bromo-5-(trifluoromethyl)phenyl)-3-(2-(6-((5-fluoro-1,4,5,6-tetrahydropyrimidin-2-yl)amino)-1H-indazole-4-carboxamido)acetamido)propanoic acid]	< 3	< 10
O=C(O)C[C@H](NC(=O)CNC(=O)c1cc(NC2=NCC(F)CN2)cc2[nH]ncc12)c1cc(I)cc(C(F)(F)F)c1 (stereo partly drawn) [Example 54-(b), (3S)-3-(2-(6-((5-fluoro-1,4,5,6-tetrahydropyrimidin-2-yl)amino)-1H-indazole-4-carboxamido)acetamido)-3-(3-iodo-5-(trifluoromethyl)phenyl)propanoic acid]	< 3	< 10
O=C(O)C[C@H](NC(=O)CNC(=O)c1cc(NC2=NCC(F)CN2)cc2[nH]ncc12)c1ccc(F)c(C(F)(F)F)c1 (stereo partly drawn) [Example 55-(b), (3S)-3-(2-(6-((5-fluoro-1,4,5,6-tetrahydropyrimidin-2-yl)amino)-1H-indazole-4-carboxamido)acetamido)-3-(4-fluoro-3-(trifluoromethyl)phenyl)propanoic acid]	< 3	< 10
O=C(O)C[C@H](NC(=O)CNC(=O)c1cc(NC2=NCC(F)CN2)cc2[nH]ncc12)c1cccc(C(F)(F)F)c1 (stereo partly drawn) [Example 56-(b), (3S)-3-(2-(6-((5-fluoro-1,4,5,6-tetrahydropyrimidin-2-yl)amino)-1H-indazole-4-carboxamido)acetamido)-3-(3-(trifluoromethyl)phenyl)propanoic acid]	3 to 10	< 10
